Key:
Test in all cases: Monolayer growth inhibition assay (MTT/MTS)
Assay type in all cases: cell-based
[1] = system: CaCo2 colon cancer cell line
Text: (§1) The MTT is a colorimetric assay to determine the cell proliferation rate. The yellow tetrazolium MTT (3-(4, 5-dimethylthiazolyl-2)-2, 5-diphenyltetrazolium bromide) is reduced, by metabolically active cells, in part by the action of dehydrogenase enzymes, to generate reducing equivalents such as NADH and NADPH. The resulting intracellular purple formazan can be solubilized and quantified by spectrophotometric means. The signals produced is directly proportional to the cell numbers. Describing the MTT assay in detail, experiments were done using six-point or 9 point drug titrations in multi-well tissue culture dishes, with outer rows left empty. Cells were suspended in complete media at densities of between 10^3 and 10^4 cell/ml, respectively, and added per well. The appropriate medium (200 μl) was then added. Twenty-four hours later, 10 μl of MTS solution, were added to one plates to determine the activity at the time of compound addition (T0). This plate was incubated at 37° for 4 hours and the optical density was measured on a Molecular Devices Thermomax at 490 nm using the Softmax program. The T0 plate served as a reference for initial activity at the beginning of the experiment.
(§2) Compound addition began 24 hours after seeding, the same time as the T0 determination. Serial dilutions at 4-fold 2-fold, 1-fold, 0.5-fold, 0.25-fold and 0.125-fold of previously determined IC50 values of each compound were made in a 96-deep well plate with the highest concentrations on the edge of the plate. Each of the six dilutions were added in triplicate and complete medium was added to the empty outer rows, without cells. The compounds were added to the plates singly or in combination with Compound III (LBH589). The plates were incubated at 37° C. for 72 hours from seeding. The MTS solution was added (as for the T0 plate) and read four hours later. In order to analyze the data, the average value of media alone (background) was subtracted from each experimental well and the triplicate values were averaged for each compound dilution. The following formulas were used to calculate percent growth.
(§3) If X>T0, % Growth=100×(X−T0)/(GC−T0))
(§4) If X<T0, % Growth=100×(X−T0)/T0)
(§5) T0=average value of T0 minus background
(§6) GC=average value of untreated cells (in triplicate) minus background X=average value, of compound treated cells (in triplicate) minus background
(§7) IC50 the concentration of LBH589 required to inhibit cell growth by 50% and LD50s the concentration required to reduce cell number (kill cells) to 50% the original innoculum were determined. The “% Growth” was plotted against compound concentration and used to calculate IC50s and LD50s, employing the user-defined spline function in Microsoft Excel.
(§8) Colon cancer cell lines were treated with DMSO vehicle control or varying concentrations of LBH589 for 3 days. Cell proliferation was measured on the day of cell plating and on the third day post-treatment. IC50 and LD50 values were calculated as described above.

[2] = system: Colo201 colon cancer cell line
Text: as §1, §2, §3, §4, §5, §6, §7, §8

[3] = system: Colo205 colon cancer cell line
Text: as §1, §2, §3, §4, §5, §6, §7, §8

[4] = system: Colo320DM colon cancer cell line
Text: as §1, §2, §3, §4, §5, §6, §7, §8

[5] = system: Colo320HSR colon cancer cell line
Text: as §1, §2, §3, §4, §5, §6, §7, §8

[6] = system: DLD-1 colon cancer cell line
Text: as §1, §2, §3, §4, §5, §6, §7, §8

[7] = system: HCC2998 colon cancer cell line
Text: as §1, §2, §3, §4, §5, §6, §7, §8

[8] = system: HCT116 Bax −/− colon cancer cell line
Text: as §1, §2, §3, §4, §5, §6, §7, §8

[9] = system: HT115 colon cancer cell line
Text: as §1, §2, §3, §4, §5, §6, §7, §8

[10] = system: MDST8 colon cancer cell line
Text: as §1, §2, §3, §4, §5, §6, §7, §8

[11] = system: SW1116 colon cancer cell line
Text: as §1, §2, §3, §4, §5, §6, §7, §8

[12] = system: SW403 colon cancer cell line
Text: as §1, §2, §3, §4, §5, §6, §7, §8

[13] = system: SW48 colon cancer cell line
Text: as §1, §2, §3, §4, §5, §6, §7, §8

[14] = system: SW480 colon cancer cell line
Text: as §1, §2, §3, §4, §5, §6, §7, §8

[15] = system: SW620 colon cancer cell line
Text: as §1, §2, §3, §4, §5, §6, §7, §8

[16] = system: WiDr colon cancer cell line
Text: as §1, §2, §3, §4, §5, §6, §7, §8

[17] = 3 days, concentration reducing cell number to 50% of original inoculum

Cc1[nH]c2ccccc2c1CCNCc1ccc(/C=C/C(=O)NO)cc1 [LBH589, N-hydroxy-3-[4-[[[2-(2-methyl-1H-indol-3-yl)ethyl]-amino]methyl]phenyl]-2E-2-propenamide]
LD50 ([1]; CaCo2, 3 days, concentration reducing cell number to 50% of original inoculum): 45.55 nM
IC50 ([1]; Homo sapiens, Caco-2, 72 h, CaCo2, 3 days treatment): 13.8 nM
LD50 ([2]; Colo201, 3 days, concentration reducing cell number to 50% of original inoculum): 20.14 nM
IC50 ([2]; Homo sapiens, COLO 201, 72 h, Colo201, 3 days treatment): 15.1 nM
LD50 ([3]; Colo205, 3 days, concentration reducing cell number to 50% of original inoculum): 33.52 nM
IC50 ([3]; Homo sapiens, COLO 205, 72 h, Colo205, 3 days treatment): 14.7 nM
LD50 [4, 17]: 1103.37 nM
IC50 ([4]; Homo sapiens, COLO 320DM, 72 h, 3 days treatment): 29.5 nM
LD50 [5, 17]: >10 µM
IC50 ([5]; Homo sapiens, COLO-320-HSR, 72 h, 3 days treatment): 13.8 nM
LD50 ([6]; DLD-1, 3 days, concentration reducing cell number to 50% of original inoculum): 296.27 nM
IC50 ([6]; Homo sapiens, 72 h, DLD-1, 3 days treatment): 61.4 nM
LD50 ([7]; HCC2998, 3 days, concentration reducing cell number to 50% of original inoculum): 154.87 nM
IC50 ([7]; Homo sapiens, HCC 2998, 72 h, HCC2998, 3 days treatment): 29.7 nM
LD50 [8, 17]: >10 µM
IC50 ([8]; Homo sapiens, HCT-116, 72 h, 3 days treatment): 1.73 nM
IC50 ([9]; 72 h, HT115, 3 days treatment): 3.49 nM
LD50 ([9]; HT115, 3 days, concentration reducing cell number to 50% of original inoculum): 31.02 nM
IC50 ([10]; 72 h, MDST8, 3 days treatment): 4.87 nM
LD50 ([10]; MDST8, 3 days, concentration reducing cell number to 50% of original inoculum): 48.44 nM
IC50 ([11]; Homo sapiens, SW 1116, 72 h, SW1116, 3 days treatment): 2.28 nM
LD50 ([11]; SW1116, 3 days, concentration reducing cell number to 50% of original inoculum): 26.93 nM
IC50 ([12]; Homo sapiens, SW-403, 72 h, SW403, 3 days treatment): 2.03 nM
LD50 ([12]; SW403, 3 days, concentration reducing cell number to 50% of original inoculum): 9.84 nM
IC50 ([13]; Homo sapiens, 72 h, SW48, 3 days treatment): 1.29 nM
LD50 ([13]; SW48, 3 days, concentration reducing cell number to 50% of original inoculum): 13.09 nM
IC50 ([14]; Homo sapiens, 72 h, SW480, 3 days treatment): 1.48 nM
LD50 ([14]; SW480, 3 days, concentration reducing cell number to 50% of original inoculum): 6.90 nM
IC50 ([15]; Homo sapiens, SW-620, 72 h, SW620, 3 days treatment): 0.79 nM
LD50 ([15]; SW620, 3 days, concentration reducing cell number to 50% of original inoculum): 1.70 nM
LD50 [16, 17]: 41.86 nM
IC50 ([16]; Homo sapiens, 72 h, 3 days treatment): 4.39 nM
